According to US10508113B2, “Inhibitors of tyrosine kinase 2 mediated signaling” (AbbVie Inc., priority 2018, dated 2019):

Experiments:
Jak1 = biological target: T1, Jak1 (Homo sapiens, UniProt P23458); test: Jak1 (PSTAT3 TF1) alpha screen assay: inhibition of IL-6 induced phosphorylation of STAT3 in TF1 cells; assay type: cell-based; details: calculated from tabulated EC50 data (Jak1 / Tyk2)
T1 construct: endogenous in cells; host or cells: TF1 cells
Description: 2. JAK1 (PSTAT3 TF1) ALPHA SCREEN ASSAY
IL-6 is known to transduce its signal through IL-6 receptor via Jak1. Activity against Jak1 was therefore measured by determining inhibition of IL-6 induced phosphorylation of STAT3 in TF1 cells.
Cell Type: TF1 Cells; Culture Medium: RPMI 1640 Medium, 2mM L-glutamine, 10% heat- inactivated fetal bovine serum (FBS), 10 mM hydroxyethyl piperazineethanesulfonic acid (HEPES), and 2 ng/mL recombinant human interleukin-6(IL-6); Assay Medium: Dulbecco's Modified Eagle Medium (DMEM) medium with 2 mM L-glutamine, 10 mM HEPES, 100 U/mL penicillin/streptomycin, 1.5 g/L sodium bicarbonate, 4.5 g/L glucose, 1 mM sodium pyruvate, 10% heat-inactivated FBS; Compound Preparation: Compounds are dissolved in 100% dimethyl sulfoxide (DMSO).
Day One—Starve Cells: 4 Flasks for one 384 plate (spin down @1000 rpm for 10 minutes and add RPMI 1640 Medium, 2 mM L-glutamine, 10% FBS, 10 mM HEPES with no IL-6 -incubate overnight).
(§1) Day Two—Compound Dilutions:
i. Manual 8-point 1:5 dilution curve: 5 mM top concentration dispensed in row A of a
Corning 96-well polypropylene plate, columns 2-12. DMSO dispensed in position A01 for low and high controls. Compounds were serially diluted 1:5 by adding 10 μL stock to […] DMSO down the plate.
ii. Media dilution of compounds: Serially diluted compounds were further diluted 1:12.5 in assay medium by adding 4 μL compound to 46 μL assay medium in a Corning 96-well polypropylene plate.
384 Alpha Screen Plate Set up: Transfer 2.5 μL/well of compound solution from assay media dilution plate. Replicates were vertical, one column of the 96-well dilution plate goes into one column on the 384-well plate twice. Plated 1×10^5 starved cells/well in 5 μL. Washed cells in 10 mL DMEM medium after spinning down. Brought cell pellet up in assay media. Counted live cells. Multiplied by dilution factor and 10,000 (constant) to get the concentration of viable cells. Multiplied by volume of assay media used to bring up cells to get the total number of live cells. Divided by 20,000,000 cells/mL to get the volume needed. Cells were plated at 5 μL/well in gray Alpha Screen 384-well plate. Spinned the plate to bring the contents to the bottom of the wells at 300 rpm for 60 seconds. Top final compound concentration: 25 μM. Sealed with adhesive and tapped gently. Incubated plate at 37° C. for 30 minutes. c. IL-6 Stimulation (pSTAT3)
Once cells were in incubator, immediately prepared working stock of IL-6 (100 ng/mL final concentration). IL-6 stock=10 μg/mL of IL-6 in phosphate buffered saline with 0.1% bovine serum albumin. Diluted 1:25 by adding 60 μL stock IL-6 to 1440 μL assay media. Added 2.5 μL IL-6 to each well. Spinned plate at 300 rpm briefly; tapped the plate gently before covering with an adhesive seal. Incubated plate at 37° C. for 30 minutes.
Added 2.5 μL of 5X Lysis buffer to each well. Incubated at room temperature on orbital shaker for 10 minutes.
e. Protein (A) Acceptor Beads Preparation:
(§2) Phosphorylated Signal Transducer and Activator of Transcription 3 (pSTAT3) was quantified using the PerkinElmer SureFire pSTAT3 (Tyrosine 705) Assay. Calculated total volume needed (wells×154 μL×25%). Divided total volume by 5 to get volume of activation buffer. Subtracted volume of activation buffer from total volume and divide by 40 to get volume of acceptor beads (add last). Total volume−acceptor bead volume−activation buffer=volume of reaction buffer. Added 15 μL to each well and covered with foil. Shaked on orbital shaker for 2 hours at 500 rpm.
(§3) f. Streptavidin Donor Beads Preparation:
Calculated total volume needed (wells×[…]×25%). Divided total volume by 20 to get volume of donor beads (add last). Subtracted volume of donor beads from total volume to get volume of dilution buffer. Added 6 μL to each well and covered with foil. Shaked on orbital shaker overnight at 500 rpm.
Read plate on a Perkin Elmer Envision. […]

Jak2 = biological target: T2, Jak2 (Homo sapiens, UniProt O60674); test: Jak2 (PSTATS UT7) alpha screen assay: inhibition of EPO induced phosphorylation of STAT5 in UT7 cells; assay type: cell-based; details: calculated from tabulated EC50 data (Jak2 / Tyk2)
T2 construct: Cell Type: UT7 cells engineered to express the erythropoietin (EPO) receptor; endogenous in cells; host or cells: UT7 cells engineered to express the EPO receptor
T2 sequence (O60674 whole entry): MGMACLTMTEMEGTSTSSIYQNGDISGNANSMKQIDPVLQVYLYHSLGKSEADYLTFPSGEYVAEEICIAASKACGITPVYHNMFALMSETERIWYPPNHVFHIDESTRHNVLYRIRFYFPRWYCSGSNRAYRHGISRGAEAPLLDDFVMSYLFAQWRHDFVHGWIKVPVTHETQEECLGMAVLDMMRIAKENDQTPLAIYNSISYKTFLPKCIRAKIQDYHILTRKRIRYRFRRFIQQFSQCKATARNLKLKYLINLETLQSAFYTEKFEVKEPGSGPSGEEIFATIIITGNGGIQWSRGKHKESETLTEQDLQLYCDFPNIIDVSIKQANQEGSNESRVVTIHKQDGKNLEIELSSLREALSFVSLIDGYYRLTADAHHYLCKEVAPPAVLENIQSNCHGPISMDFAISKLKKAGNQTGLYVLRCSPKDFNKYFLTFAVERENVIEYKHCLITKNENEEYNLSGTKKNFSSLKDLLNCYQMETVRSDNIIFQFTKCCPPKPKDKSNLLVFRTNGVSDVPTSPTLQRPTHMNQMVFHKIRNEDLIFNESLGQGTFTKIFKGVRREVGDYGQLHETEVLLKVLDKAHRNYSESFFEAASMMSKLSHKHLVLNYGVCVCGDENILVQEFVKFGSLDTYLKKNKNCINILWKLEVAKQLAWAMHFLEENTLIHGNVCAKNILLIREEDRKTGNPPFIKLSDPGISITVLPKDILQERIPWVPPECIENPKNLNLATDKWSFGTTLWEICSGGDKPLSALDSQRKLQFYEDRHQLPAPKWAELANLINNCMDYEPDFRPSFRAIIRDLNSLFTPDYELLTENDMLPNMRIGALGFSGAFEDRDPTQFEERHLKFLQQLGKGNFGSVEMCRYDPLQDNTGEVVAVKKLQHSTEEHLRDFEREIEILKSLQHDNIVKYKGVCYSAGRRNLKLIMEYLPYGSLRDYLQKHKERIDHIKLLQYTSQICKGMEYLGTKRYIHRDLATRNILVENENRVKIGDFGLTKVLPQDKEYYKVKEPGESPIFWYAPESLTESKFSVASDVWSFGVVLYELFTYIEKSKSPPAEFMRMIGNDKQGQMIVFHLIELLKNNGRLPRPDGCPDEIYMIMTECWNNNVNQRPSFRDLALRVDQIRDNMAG
Description: 3. JAK2 (PSTATS UT7) ALPHA SCREEN ASSAY
Erythropoietin (EPO) is known to transduce its signal through EPO receptor via Jak2. Activity against Jak2 was therefore measured by determining inhibition of EPO induced phosphorylation of STATS in UT7 cells. […] Materials
Cell Type: UT7 cells engineered to express the erythropoietin (EPO) receptor; Culture Medium: Dulbecco's Modified Eagle Medium (DMEM) with 2 mM L-glutamine, 10 mM hydroxyethyl piperazineethanesulfonic acid (HEPES), 10% heat-inactivated fetal bovine serum (FBS) and Stock EPO (5000U in 250 uL, need 5U/mL, so add 250 μL to 1L of media); Assay Medium: 5% FBS ultra-low IgG and 1% Pen/Strep. Compounds were made-up in 100% dimethyl sulfoxide (DMSO).
Day One - Starve Cells: 4 Flasks for one 384 plate (spin down @1000 rpm for 10 minutes and add DMEM with no EPO).
as §1
i. Manual 8-point 1:3 dilution curve: 5 mM top concentration dispensed in row A of a
Corning 96-well polypropylene plate, columns 2-12. DMSO dispensed in position A01 for low and high controls. Compounds were serially diluted 1:3 by adding 10 μL stock to 20 μL DMSO down the plate.
ii. Media dilution of compounds: Serially diluted compounds were diluted 1:50 in assay medium by adding 4 μL compound to 196 μL assay medium in a Corning 96-well polypropylene plate.
384 Alpha Screen Plate Set up: Transferred 2.5 μL/well of compound solution from last dilution plate. Replicates were vertical, so that one column of the 96-well dilution plate goes into one column on the 384-well plate twice. Plated 1×10^5 starved cells/well in 5μL. Washed cells in 10 mL Hank's balanced salt solution (HBSS) after spinning down. Counted live cells. Multiplied by dilution factor and 10,000 (constant) to get the concentration of viable cells. Multiplied by volume of cells to get the total number of live cells. Divided by 20,000,000 cells/mL to get the volume needed. Subtracted the original volume to get the volume to be added to get the final concentration of cells. Mixed in reservoir if needed, ensuring that all cell clumps are broken up (if not broken up, they were removed from the suspension). Cells were plated at 5 μL/well in gray Alpha Screen 384-well plate. Spinned the plate to bring the contents to the bottom of the wells at 400 rpm for 2 minutes. Top final compound concentration: 25 μM. Sealed with adhesive and tapped gently. Incubated cells at 37° C. for 30 minutes.
c. EPO Stimulation (p STATS)
Once cells were in incubator, immediately prepared working stock of EPO (1 nM final assay concentration). EPO stock=2860 nM of sterile filtered liquid in sodium citrate buffer (1 liter of ddH2O containing 5.9 g of sodium citrate, 5.8 g of sodium chloride and 0.06 g of citric acid). Diluted 1:22.72 by adding 4.44 stock EPO to 95.6 pi assay media, then dilute again […] depending on how much volume is needed for the assay plates. Used assay medium to bring to volume. Added 2.5 μL EPO to each well. Spinned plate at 400 rpm briefly; tap the plate gently before covering with an adhesive seal. Cells were incubated at 37° C. for 20 minutes.
Added 2.5 μL of 5X Lysis buffer to each well. Spinned plate at 400 rpm briefly. Incubated at room temperature (on orbital shaker) for 10 minutes.
e. Protein (A) Acceptor Beads Preparation: (Light sensitive)
as §2, with “5 (pSTAT5)” for “3 (pSTAT3)”, “pSTATS” for “pSTAT3”, “694/699)” for “705)”, “(wells×15 μL×30%).” for “(wells×154 μL×25%).”, “volume - acceptor” for “volume−acceptor”, “volume - activation buffer to get volume” for “volume−activation buffer=volume”
as §3
Calculated total volume needed (wells×6μL×30%). […]

T1 sequence (P23458 whole entry): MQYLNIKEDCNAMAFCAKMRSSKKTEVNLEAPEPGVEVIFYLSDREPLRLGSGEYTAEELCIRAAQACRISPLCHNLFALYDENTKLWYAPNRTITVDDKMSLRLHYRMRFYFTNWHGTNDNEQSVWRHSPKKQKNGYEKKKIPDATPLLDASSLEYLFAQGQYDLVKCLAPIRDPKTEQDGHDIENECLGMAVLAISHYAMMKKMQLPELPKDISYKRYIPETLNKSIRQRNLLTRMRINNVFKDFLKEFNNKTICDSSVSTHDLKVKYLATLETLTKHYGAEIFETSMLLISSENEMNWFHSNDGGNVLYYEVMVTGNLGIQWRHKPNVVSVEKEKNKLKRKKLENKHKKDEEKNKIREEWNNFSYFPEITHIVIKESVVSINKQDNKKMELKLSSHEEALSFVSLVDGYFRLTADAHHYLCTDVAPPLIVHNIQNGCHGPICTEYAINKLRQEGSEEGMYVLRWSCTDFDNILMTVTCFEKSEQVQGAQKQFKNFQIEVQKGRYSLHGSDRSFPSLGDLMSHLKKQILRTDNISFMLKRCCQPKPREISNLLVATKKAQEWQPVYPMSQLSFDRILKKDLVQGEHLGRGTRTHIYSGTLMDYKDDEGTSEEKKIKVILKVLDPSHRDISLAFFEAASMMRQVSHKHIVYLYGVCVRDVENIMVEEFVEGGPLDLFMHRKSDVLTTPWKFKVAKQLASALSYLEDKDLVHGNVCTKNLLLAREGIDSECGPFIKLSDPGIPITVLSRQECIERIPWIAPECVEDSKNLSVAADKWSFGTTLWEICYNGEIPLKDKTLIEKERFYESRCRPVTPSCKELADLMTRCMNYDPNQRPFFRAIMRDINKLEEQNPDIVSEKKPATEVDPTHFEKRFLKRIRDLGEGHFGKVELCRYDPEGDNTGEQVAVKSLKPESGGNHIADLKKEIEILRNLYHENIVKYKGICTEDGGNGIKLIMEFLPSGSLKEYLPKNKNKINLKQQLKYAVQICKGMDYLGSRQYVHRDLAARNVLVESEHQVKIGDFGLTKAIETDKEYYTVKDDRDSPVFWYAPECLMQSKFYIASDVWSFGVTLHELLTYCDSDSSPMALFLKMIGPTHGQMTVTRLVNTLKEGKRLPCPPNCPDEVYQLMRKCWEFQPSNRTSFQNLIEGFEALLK

SMILES | Tyk2 selectivity over Jak1 (Jak1) | Tyk2 selectivity over Jak2 (Jak2)
CO[C@@]1(c2cccc(-c3cn(C)c4cnc(NC(N)=O)cc34)n2)CCOC1 [Example 1, (R)-1-(3-(6-(3-Methoxytetrahydrofuran-3-yl)pyridin-2-yl)-1-methyl-1H-pyrrolo[2,3-c]pyridin-5-yl)urea] | 92-fold | >424-fold
CO[C@@]1(c2cccc(-c3cn([C@@H]4CC4(F)F)c4cnc(NC(N)=O)cc34)n2)CCOC1 [Example 1.2, 1-(1-((R)-2,2-difluorocyclopropyl)-3-(6-((R)-3-methoxytetrahydrofuran-3-yl)pyridin-2-yl)-1H-pyrrolo[2,3-c]pyridin-5-yl)urea] | 300-fold | >556-fold
CO[C@@]1(c2cc(C)cc(-c3cn(C)c4cnc(NC(N)=O)cc34)n2)CCOC1 [Example 1b.2, (R)-1-(3-(6-(3-methoxytetrahydrofuran-3-yl)-4-methylpyridin-2-yl)-1-methyl-1H-pyrrolo[2,3-c]pyridin-5-yl)urea] | 840-fold | >1000-fold
COC1(c2cccc(-c3cn(C)c4cnc(NC(N)=O)cc34)n2)COC1 [Example 1b.4, 1-(3-(6-(3-methoxyoxetan-3-yl)pyridin-2-yl)-1-methyl-1H-pyrrolo[2,3-c]pyridin-5-yl)urea] | 54-fold | >176-fold
Cn1cc(-c2cncc([C@]3(C)CCOC3)n2)c2cc(NC(N)=O)ncc21 [Example 1b.5, (S)-1-(1-methyl-3-(6-(3-methyltetrahydrofuran-3-yl)pyrazin-2-yl)-1H-pyrrolo[2,3-c]pyridin-5-yl)urea] | 83-fold | >1389-fold
Cn1cc(-c2cncc([C@@]3(C)CCOC3)n2)c2cc(NC(N)=O)ncc21 [Example 1b.6, (R)-1-(1-methyl-3-(6-(3-methyltetrahydrofuran-3-yl)pyrazin-2-yl)-1H-pyrrolo[2,3-c]pyridin-5-yl)urea] | 22-fold | >128-fold
COCc1cc(-c2cn(C)c3cnc(NC(C)=O)cc23)nc([C@]2(OC)CCOC2)c1 [Example 2, (R)-N-(3-(4-(Methoxymethyl)-6-(3-methoxytetrahydrofuran-3-yl)pyridin-2-yl)-1-methyl-1H-pyrrolo[2,3-c]pyridin-5-yl)acetamide] | >317-fold | >198-fold
CO[C@@]1(c2cc(C)cc(-c3cn(C)c4cnc(NC(C)=O)cc34)n2)CCOC1 [Example 2.2, (R)-N-(3-(6-(3-methoxytetrahydrofuran-3-yl)-4-methylpyridin-2-yl)-1-methyl-1H-pyrrolo[2,3-c]pyridin-5-yl)acetamide] | 207-fold | >126-fold
CO[C@@]1(c2cc(C(F)F)cc(-c3cn(C)c4cnc(NC(C)=O)cc34)n2)CCOC1 [Example 2.8, (R)-N-(3-(4-(difluoromethyl)-6-(3-methoxytetrahydrofuran-3-yl)pyridin-2-yl)-1-methyl-1H-pyrrolo[2,3-c]pyridin-5-yl)acetamide] | 405-fold | >595-fold
CC[C@]1(c2cc(C#N)cc(-c3cn(C)c4cnc(NC(C)=O)cc34)n2)CCOC1 [Example 2.11, (R)-N-(3-(4-cyano-6-(3-ethyltetrahydrofuran-3-yl)pyridin-2-yl)-1-methyl-1H-pyrrolo[2,3-c]pyridin-5-yl)acetamide] | 72-fold | >240-fold
CO[C@@]1(c2cc(C#N)cc(-c3cn([C@@H]4CC4(F)F)c4cnc(NC(C)=O)cc34)n2)CCOC1 [Example 2a.3, N-(3-(4-cyano-6-((R)-3-methoxytetrahydrofuran-3-yl)pyridin-2-yl)-1-((R)-2,2-difluorocyclopropyl)-1H-pyrrolo[2,3-c]pyridin-5-yl)acetamide] | 440-fold | >197-fold
COCc1cc(-c2cn(C)c3cnc(NC(C)=O)cc23)nc([C@@]2(CO)CCOC2)c1 [Example 22a, (R)-N-(3-(6-(3-(hydroxymethyl)tetrahydrofuran-3-yl)-4-(methoxymethyl)pyridin-2-yl)-1-methyl-1H-pyrrolo[2,3-c]pyridin-5-yl)acetamide] | – | >21-fold
